The values that follow come from publication PMC11478076, “Synthetic Routes to 2-aryl-1H-pyrrolo[2,3-b]pyridin-4-amines: Cross-Coupling and Challenges in SEM-Deprotection” (Molecules, 2024).

The target of data set [1] is T1, CSF1R (Homo sapiens, UniProt P07333). Description: CSF1R enzymatic inhibitory assay, Z'-LYTE (Invitrogen/ThermoFisher). The format is biochemical. The note with it: ATP level equal to KM 10 μM, two titration curves (20 data points). As for the experimental part: Figure 2 CSF1R inhibition (IC50 curves) for the 7-azaindole 3c (red squares), pyrrolopyrimidine 1 (blue circles) and thienopyrimidine 2 (green triangles). The solid lines are regression curves generated from 20 data points each. The assay was performed at ThermoFisher (Invitrogen, San Diego, CA, USA) using the Z-lyte technology; ATP level was equal to KM.
T1 sequence (P07333 20-972): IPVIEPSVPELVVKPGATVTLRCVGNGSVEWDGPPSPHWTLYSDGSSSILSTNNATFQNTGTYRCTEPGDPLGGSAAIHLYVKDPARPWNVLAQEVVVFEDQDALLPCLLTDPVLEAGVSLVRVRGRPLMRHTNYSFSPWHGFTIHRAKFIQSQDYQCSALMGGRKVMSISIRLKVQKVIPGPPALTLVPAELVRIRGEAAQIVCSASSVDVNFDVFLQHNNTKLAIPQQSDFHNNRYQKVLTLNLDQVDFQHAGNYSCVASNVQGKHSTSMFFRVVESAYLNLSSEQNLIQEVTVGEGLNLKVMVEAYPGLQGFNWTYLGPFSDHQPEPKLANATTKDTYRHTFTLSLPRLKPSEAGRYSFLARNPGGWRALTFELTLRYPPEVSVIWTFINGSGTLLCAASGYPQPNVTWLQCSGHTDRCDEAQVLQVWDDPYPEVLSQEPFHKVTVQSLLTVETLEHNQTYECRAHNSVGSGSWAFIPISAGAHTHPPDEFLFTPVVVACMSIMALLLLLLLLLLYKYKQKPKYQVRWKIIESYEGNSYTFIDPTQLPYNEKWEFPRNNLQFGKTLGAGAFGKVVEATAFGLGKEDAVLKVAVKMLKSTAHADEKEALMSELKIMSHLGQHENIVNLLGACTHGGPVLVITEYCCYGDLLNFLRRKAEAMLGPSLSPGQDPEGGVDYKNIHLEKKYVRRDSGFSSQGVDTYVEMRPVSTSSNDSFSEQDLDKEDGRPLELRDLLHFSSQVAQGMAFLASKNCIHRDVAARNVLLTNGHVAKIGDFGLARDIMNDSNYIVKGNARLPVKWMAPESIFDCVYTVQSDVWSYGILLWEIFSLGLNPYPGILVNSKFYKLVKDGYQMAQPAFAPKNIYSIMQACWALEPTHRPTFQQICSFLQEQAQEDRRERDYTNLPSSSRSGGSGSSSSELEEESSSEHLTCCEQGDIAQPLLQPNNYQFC
(§1) CSF1R enzymatic inhibitory assay
(§2) The compounds were supplied in a 10 mM DMSO solution, and enzymatic CSF1R inhibition potency was determined by Invitrogen (ThermoFisher) using their Z’-LYTE® assay technology.[11] The assay is based on fluorescence resonance energy transfer (FRET). In the primary reaction, the kinase transfers the gamma-phosphate of ATP to a single tyrosine residue in a synthetic FRET-peptide. In the secondary reaction, a site-specific protease recognizes and cleaves non-phosphorylated FRET-peptides. Thus, phosphorylation of FRET-peptides suppresses cleavage by the development reagent. Cleavage disrupts FRET between the donor (i.e. coumarin) and acceptor (i.e., fluorescein) fluorophores on the FRET-peptide, whereas uncleaved, phosphorylated FRET-peptides maintain FRET. […]
(§3) The TR-FRET-based LANCE Ultra assay (Perkin Elmer) was used to determine IC50 values for various CSF1R inhibitors. Kinase activity and inhibition in this assay was measured as […]

Data set [2] has as its target T1, CSF1R. Put plainly: CSF1R enzymatic inhibitory assay, LANCE Ultra TR-FRET (Perkin Elmer). The format is biochemical. The protocol:
as §1, §2, §3
recommended by the manufacturer. […] Subsequently, phosphorylation or inhibition was detected by addition of specific europium (Eu)-labelled anti-phospho-antibodies (2 nM), which upon binding to the phospho-peptide give rise to a FRET signal. The FRET signal was recorded in a time-resolved manner in a Perkin Elmer EnVision reader. […] All assay data was analysed with the Quattro Workflow software package from Quattro Research.

Data set [3] concerns the target T1, CSF1R. Set-up: method as in Aarhus et al. [19]. Particulars: LANCE Ultra assay; ATP level 25 μM; previously reported data ref Aarhus et al. [19]; cited from earlier work.
Data set [4] concerns the target T1, CSF1R. Set-up: method as in PMID 38141285. Particulars: cited from earlier work.

Each structure is given as a SMILES string. Where “and” joins values, the source holds several entries; their conditions need not be identical. Equal entries are not always repeated. Where two headings read alike, the source gives them in different places.

For the compound `CN(Cc1ccccc1)c1ccnc2[nH]c(-c3ccccc3)cc12` [3a, N-Benzyl-N-methyl-2-phenyl-1H-pyrrolo-[2,3-b]pyridin-4-amine], the melting point was in the range of 191 to 193 °C.

Take `CN(Cc1ccccc1)c1ccnc2[nH]c(-c3ccc(CO)cc3)cc12` [3c, (4-(4-(Benzyl(methyl)amino)-1H-pyrrolo[2,3-b]pyridin-2-yl)phenyl)methanol]: the melting point was in the range of 200 to 201 °C. Moreover, on CSF1R [1], the IC50 is 3 nM and 3.1 nM. Moreover, the “fold lower CSF1R activity compared to the corresponding pyrrolopyrimidine (reference inhibitor 1)” value at CSF1R [2] (CSF1R assay with higher ATP concentration (25 μM)) is listed as 20 fold. At CSF1R [2] (LANCE Ultra assay, ATP level 25 μM), the IC50 was determined as 105 nM.

As for `COc1ccc(-c2[nH]c3nccc4c3c2Cc2ccccc2CN4C)cc1` [16b, 1-(4-Methoxyphenyl)-6-methyl-2,6,7,12-tetrahydro-2,3,6-triazabenzo[6,7]cycloocta[1,2,3-cd]indene], the melting point is 287 to 289 °C (dec.).

In the case of `CN(Cc1ccccc1)c1ncnc2sc(-c3ccc(CO)cc3)cc12` [compound 2], the IC50 at CSF1R [3] is 450 nM. Besides, the “CSF1R inhibitory activity in enzymatic studies (in words)” value at CSF1R [4] was “far less active”.
